Legend:
[1] = system: dementia in human population; experiment: Population-based retrospective matched cohort analysis of dementia risk (Taiwan NHIRD database); format: in vivo
Procedure: To assess the potential for applying the combined drugs identified in Example 5 for therapeutic application in patients with dementia, a long-term follow-up retrospective analysis of human efficacy predictions was conducted by using National Health Research Institutes Database (NHRID) of Taiwan. Specifically, a […] matched cohort study was conducted to assess the effectiveness of the combined use of thyroid hormones and thiazolidinediones (TZDs) in reducing the risk of dementia, based on a dataset tracked 10,535 subjects with these two drugs for 10 years.

3T3-L1 cells [2] = experiment: Lipid droplet accumulation in 3T3-L1 adipocytes (3D imaging, HCS LipidTOX Red neutral lipid stain); format: cell-based, mouse; settings: 1 μM peptide, 24 hours
Procedure: (§1) FIGS. 3A to 3E show the increased lipid deposition induced by Aβ42.
Scale bar: 20 μm. […] FIGS. 6H and 6I show the HDL/T-Chol (FIG. 6H) and glucose (FIG. 6I) levels in plasma of APP/PS1 mice with or without thyroxine and pioglitazone. ** p<0.01. […] Tubulin, GAPDH (glyceraldehyde-3-phosphate dehydrogenase), and ponceau S: internal controls, respectively.
The 3T3-L1 pre-adipocytes ([…], ATCC CL-173) were cultured in Dulbecco's modified Eagle medium (DMEM) (Invitrogen, USA). Cells were grown at 37° C. in a 5% CO2 humid atmosphere. The differentiation of 3T3-L1 cells into adipocyte-like cells was performed as follows. A confluence of 70% of 3T3-L1 cells was induced with MDI induction medium (containing 500 μM 3-isobutyl-1-methylxanthine (IBMX), 1 μg/mL insulin, and 1 μM dexamethasone) for 3 days, followed by changing the medium to differentiation medium (10% fetal bovine serum (FBS) in DMEM). The differentiation medium was refreshed every two days. Full differentiation was achieved by day 8.
To exclude the possibility that the visceral adiposity was a secondary event caused by factors released from other tissues/organs, 3T3-L1 adipocytes were incubated with Aβ40 or Aβ42 to determine whether and which Aβ peptides to be potent in causing lipid accumulation in adipocytes.

3T3-L1 cells [3] = experiment: ApoE gene expression and LXR signaling protein levels in 3T3-L1 cells treated with Aβ peptides; format: cell-based, mouse
Procedure: FIGS. 4E and 4H show the result of Western blot of LXR signaling proteins in gWAT (FIG. 4E) or BAT (FIG. 4H) of wild-type (WT) mice and APP/PS1 (AD) mice (n=2). […] ABCA1: ATP binding cassette subfamily A member 1. PPAγ: peroxisome proliferator-activated receptor gamma. Actin, GAPDH (glyceraldehyde-3-phosphate dehydrogenase) and tubulin: internal controls, respectively.
The 3T3-L1 pre-adipocytes ([…], ATCC CL-173) were cultured in Dulbecco's modified Eagle medium (DMEM) (Invitrogen, USA). Cells were grown at 37° C. in a 5% CO2 humid atmosphere. The differentiation of 3T3-L1 cells into adipocyte-like cells was performed as follows. […]
Total RNAs from brain tissues or culture cells were extracted using the illustra RNAspin Mini RNA Isolation Kit (GE Healthcare Life Sciences) for reverse transcription with the High-Capacity cDNA Reverse Transcription Kits (ABI Applied Biosystems, USA) according to the manufacturer's instructions. The quantitative real-time reverse transcription-PCR analysis was performed using the Fast SYBR Green Master Mix (ABI Applied Biosystems, USA). Results were determined using respective standard curves calculations. […]

[4] = system: Aβ42-treated 3T3-L1 cells; experiment: UCP1 and PPARγ2 levels in MDI-induced, Aβ42-treated 3T3-L1 cells (screening of combination drugs); settings: MDI-induced differentiated 3T3-L1 adipocytes treated with Aβ42 (FIG. 5)
wild-type mice = experiment: Aβ42 intraperitoneal injection into wild-type mice (lipid deposition); format: in vivo, mouse; settings: WT mice, Aβ42 30 μg intraperitoneally three times at an interval of 3 days; 7 days after last injection
Procedure: as §1
To assess whether the Aβ peptides were involved in lipid deposition in adipose tissues, Aβ42 (30 μg) was injected intraperitoneally into WT mice three times at an interval of 3 days.

Row | Molecule | Incidence rate of dementia (per 1,000-person-year) ([1]; Group 3: TZD + T3 vs T3 only, matched cohort) | reduction of the risk of getting dementia ([1]; retrospective analysis, 10 years follow-up) [%] | lipid droplet accumulation in adipocytes (3T3-L1 cells [2]) | protein levels of LXRα, PPARγ, ABCA1 and caveolin-1 (3T3-L1 cells [3]; Western blot) | apoE gene expression (3T3-L1 cells [3]; qRT-PCR) | PPARγ2 level [4] | UCP1 level [4] | body weight and gWAT mass (wild-type mice)
1 | N[C@@H](Cc1cc(I)c(Oc2ccc(O)c(I)c2)c(I)c1)C(=O)O [T3 only, triiodothyronine] | 10.17 per 1,000-person-year | 21.7 | – | – | – | – | – | –
2 | Aβ40: amyloid β peptide Aβ40, comparison peptide | – | – | not | – | – | – | – | –
3 | Aβ42: amyloid β peptide Aβ42, used as inducer of lipid deposition | – | – | evidently stimulated | markedly decreased | markedly upregulated | increased | decreased | rapidly increased

— patent US20250360215A1, “PHARMACEUTICAL COMBINATIONS AND METHODS FOR PREVENTING OR TREATING NEURODEGENERATIVE DISEASES” (National Health Research Institutes, priority 2022, published 2025)
